Measured values published in patent publication US9895337B2, “Compositions containing monoacetyldiacylglycerol compound as an active ingredient for preventing or treating rheumatoid arthritis” (ENZYCHEM LIFESCIENCES CORPORATION, priority 2013, dated 2018).

How the values were obtained:
STAT-1 = assay: Inhibition of PMA-induced STAT-1 phosphorylation in NK-92 cells (western blot); type: cell-based, Human; details: PMA-induced (FIG. 2B)
Experimental: Human cell lines NK-92, U937, A549 and HepG2 (American Type Culture Collection, ATCC, Rockville, Md.) were cultured at 37° C. under 5% CO2 humid conditions. NK-92 cells were cultured in alpha-MEM media (Life Technologies, Karlsruhe, Germany) containing 10% Fetal Calf Serum (FCS, HyClone, Logan, Utah), 2 mM […], 100 μg/ml penicillin, 100 μg/ml streptomycin (Life Technologies). U937, A549 and HepG2 cells were cultured in RPMI media containing 10% Fetal Calf Serum.
Cells treated in EC-18 and PMA (Phobol 12-myristate 13-acetate) were lysed with cold SDS lysis buffer [(50 mM HEPES, 150 mM NaCl, 0.2 mM EDTA, 0.5% NP-40, 0.1% SDS, 1 mM Na3VO4, 10 mM NaF, and complete Protein Inhibitor Cocktail (Roche)] for 30 minutes on ice. After cell lysis, the aqueous solution was separated from the insoluble precipitate by centrifuging the cell lysates for 30 minutes at 13,000 rpm in a high-speed centrifuge. After protein quantification, the aqueous solution was separated in 10 to 12% SDS-PAGE by electrophoresis. Proteins separated in the gel were transferred into PVDF membrane (Millipore, Billerica, Mass., USA) at 100V for 2 hours. […]

[1] = system: collagen-induced arthritis in male DBA/1J mouse; assay: Arthritis animal model induced by bovine type II collagen; type: in vivo; details: for histopathological arthritis score of knee joint: knee joint of both hind legs, vs negative control (FIG. 6); for histopathological arthritis score of knee joint / concentration of IL-6 in serum: EC-18 125, 500, 2,000 mg/kg oral, Remicade 20 mg/kg i.p., methotrexate 2.5 mg/kg oral; for concentration of IL-6 in serum: serum at day of tissue excision, once a day for five weeks, vs negative control (FIG. 4)
Experimental: For arthritis animal model experiment, arthritis was induced in male DBA/1J mouse by administering bovine type II collagen to the mouse. Efficacy of EC-18 for treating (or improving) arthritis was evaluated by repeatedly administering EC-18 to the mouse orally. For comparison, Remicade (positive control 1) was administered intraperitoneally and methotrexate (positive control 2) was administered orally. The experiment included seven groups: normal group (G1), negative control (G2), 125 mg/kg, 500 mg/kg and 2,000 mg/kg of EC-18 (EC-18 treatment groups, G3, G4, G5), 20 mg/kg of Remicade (Positive control 1, G6) and 2.5 mg/kg of Methotrexate (Positive control 2, G7). Each group consists of 10 mice. Olive oil was administered to normal group (G1) and negative control group (G2) as an excipient. In all groups, administration was made once a day for five weeks (a total of 35 administrations). Remicade (G6) was administered intraperitoneally, whereas EC-18, methotrexate and olive oil were administered orally in force. For all groups except normal Group (G1), arthritis was induced by immunizing animals twice with bovine type II collagen and complete Freund's adjuvant or incomplete Freund's adjuvant emulsion. During the observation period, common arthritis symptoms were observed once a day, weigh measured once a week, arthritic score evaluation made with the naked eye twice a week, foot thickness measured twice a week.

| Compound | STAT-1 phosphorylation (STAT-1) | histopathological arthritis score of knee joint [1] | concentration of IL-6 in serum [1] | crushing of cartilage and increase of Pannus (stained arthritic tissue) ([1]; EC-18 500 mg/kg oral (G4), Remicade 20 mg/kg i.p. (G6), vs negative control (FIGS. 7 and 8)) |
| --- | --- | --- | --- | --- |
| CCCCC/C=C\C/C=C\CCCCCCCC(=O)OC(COC(C)=O)COC(=O)CCCCCCCCCCCCCCC (stereo not drawn) [EC-18, 1-palmitoyl-2-linoleoyl-3-acetylglycerol] | does not inhibit | – | – | – |
| CN(Cc1cnc2nc(N)nc(N)c2n1)c1ccc(C(=O)N[C@@H](CCC(=O)O)C(=O)O)cc1 [Methothrexate, methotrexate] | – | reduced | reduced | – |
| Remicade: positive control 1, administered intraperitoneally at 20 mg/kg | – | reduced | reduced | reduced |
